Results taken from patent US20050276867A1, “Stabilized compositions comprising a therapeutically active agent and an oxidizing preservative” (ALLERGAN, INC., priority 2004, published 2005).

Tests used:
[1] = for Stabilized Chlorine Dioxide Concentration, 0 Days / Stabilized Chlorine Dioxide Concentration, 7 Days / Stabilized Chlorine Dioxide Concentration, 14 Days: ingredient added at ppm shown (100) to brimonidine composition; for Stabilization of chlorine dioxide by the excipient (in words): summary of Table 1
Experimental: Each of the excipients was added, in the amounts shown, to a proprietary composition comprising brimonidine as a therapeutically active agent.

[2] = chlorine dioxide to ClO2-; permanganate to manganese dioxide; cited from earlier work

SMILES	Stabilized Chlorine Dioxide Concentration, 0 Days [1] [ppm]	Stabilized Chlorine Dioxide Concentration, 7 Days [1] [ppm]	Stabilized Chlorine Dioxide Concentration, 14 Days [1] [ppm]	Stabilization of chlorine dioxide by the excipient (in words) [1]	Standard reduction potential [2] [V]
O=C(O)CN(CCN(CC(=O)O)CC(=O)O)CC(=O)O [EDTA]	44	2	0	do not stabilize the chlorine dioxide	
NCCN [Ethylene diamine]				do not stabilize the chlorine dioxide	
O=C([O-])/C(O)=C(\O)C(=O)[O-].[Na+].[Na+] [Sodium Dihydroxyfurmarate]	37	13	0		
O=C[O-].[Na+] [Sodium Formate]	42	40	36		
CC(O)C(=O)[O-].[Na+] (centres unmarked) [Sodium Lactate]	45	40	37		
O=C([O-])C(=O)[O-].[Na+].[Na+] [Sodium Oxalate]	39	38	35	ineffective	
CC(=O)C(=O)[O-].[Na+] [Sodium Pyruvate]				ineffective	
[O][Cl+][O-] [chlorine dioxide]					1.07
